Experiments:
Carbonic anhydrase 9 = Carbonic anhydrase 9 (Homo sapiens, UniProt Q16790)
Description: Inhibition of human recombinant CA9 by CO2 hydration stopped flow assay

Carbonic anhydrase 12 = Carbonic anhydrase 12 (Homo sapiens, UniProt O43570)
Chain of Carbonic anhydrase 12 (O43570 whole entry): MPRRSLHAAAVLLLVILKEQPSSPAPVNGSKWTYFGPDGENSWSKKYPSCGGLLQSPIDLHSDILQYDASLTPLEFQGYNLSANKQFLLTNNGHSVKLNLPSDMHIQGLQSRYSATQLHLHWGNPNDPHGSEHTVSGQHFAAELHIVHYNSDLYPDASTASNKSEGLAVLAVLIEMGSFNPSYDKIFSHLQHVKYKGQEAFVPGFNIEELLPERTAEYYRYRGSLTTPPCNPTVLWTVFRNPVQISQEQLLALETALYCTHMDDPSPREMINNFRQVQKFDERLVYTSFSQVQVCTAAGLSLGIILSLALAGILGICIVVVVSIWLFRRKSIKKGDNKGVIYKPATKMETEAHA
Description: Inhibition of human recombinant CA12 by CO2 hydration stopped flow assay

| Ki (Carbonic anhydrase 9) [nM] | Ki (Carbonic anhydrase 12) [nM] | Compound |
| --- | --- | --- |
| 8.4 |  | NS(=O)(=O)c1ccc(NC(=O)CN(CCN(CCN(CC(=O)O)CC(=O)Nc2ccc(S(N)(=O)=O)cc2)CC(=O)O)CC(=O)O)cc1 |
| 7.3 |  | NS(=O)(=O)c1ccc(CNC(=O)CN(CCN(CC(=O)O)CC(=O)NCc2ccc(S(N)(=O)=O)cc2)CC(=O)O)cc1 |
| 7.9 |  | NS(=O)(=O)c1cccc(NC(=O)CN(CCN(CC(=O)O)CC(=O)Nc2cccc(S(N)(=O)=O)c2)CC(=O)O)c1 |
| 8.7 |  | NS(=O)(=O)c1ccc(CNC(=O)CN(CCN(CCN(CC(=O)O)CC(=O)NCc2ccc(S(N)(=O)=O)cc2)CC(=O)O)CC(=O)O)cc1 |
| 7.5 |  | NS(=O)(=O)c1ccc(CCNC(=O)CN(CCN(CCN(CC(=O)O)CC(=O)NCCc2ccc(S(N)(=O)=O)cc2)CC(=O)O)CC(=O)O)cc1 |
| 9.6 |  | NS(=O)(=O)c1cccc(NC(=O)CN(CCN(CCN(CC(=O)O)CC(=O)Nc2cccc(S(N)(=O)=O)c2)CC(=O)O)CC(=O)O)c1 |
| 7.8 |  | NS(=O)(=O)c1ccc(NC(=O)CN(CCN(CC(=O)O)CC(=O)Nc2ccc(S(N)(=O)=O)cc2)CC(=O)O)cc1 |
| 8.2 |  | NS(=O)(=O)c1ccc(CCNC(=O)CN(CCN(CC(=O)O)CC(=O)NCCc2ccc(S(N)(=O)=O)cc2)CC(=O)O)cc1 |
| 8.5 |  | NS(=O)(=O)c1nnc(NC(=O)CN(CCN(CC(=O)O)CC(=O)Nc2nnc(S(N)(=O)=O)s2)CC(=O)O)s1 |
| 8.3 |  | NS(=O)(=O)c1nnc(NC(=O)CN(CCN(CCN(CC(=O)O)CC(=O)Nc2nnc(S(N)(=O)=O)s2)CC(=O)O)CC(=O)O)s1 |
| 103 | 633 | O=C1NS(=O)(=O)c2ccccc21 [SACCHARIN] |

— ChEMBL document CHEMBL1143206, “Carbonic anhydrase inhibitors: copper(II) complexes of polyamino-polycarboxylamido aromatic/heterocyclic sulfonamides are very potent inhibitors of the tumor-associated isoforms IX and XII” (Bioorg Med Chem Lett, 2008)
